In ChEMBL document CHEMBL4765482, “Novel Sigma 1 Receptor Antagonists as Potential Therapeutics for Pain Management” (J Med Chem, 2021):
Activity calls are given as the source filed them.

Experiments:
[1] = Tmax in Sprague-Dawley rat plasma at 10 mg/kg, ip measured after 0.25 to 4 hrs by LC-MS/MS analysis; type: ADME, organism-based; conditions: time 0.25-4 hrs
[2] = MRT (0 to infinity) in Sprague-Dawley rat plasma at 10 mg/kg, ip after 0.25 to 4 hrs by LC-MS/MS analysis; type: ADME, organism-based; conditions: time 0.25-4 hrs
[3] = target: Sigma intracellular receptor 2 (Homo sapiens, UniProt Q5BJF2); assay: Displacement of [3H]-DTG from sigma-2 receptor in human Jurkat cell membrane incubated for 1 hr by liquid scintillation counting method; type: cell membranes
[4] = test system: Rattus norvegicus; assay: Analgesic activity in Sprague-Dawley rat model of paclitaxel-induced neuropathic pain assessed as decrease in mechanical allodynia by measuring reduction in pain threshold at 20 mg/kg, ip measured at 0.5 to 1.5 hrs by Von Frey assay relative to control; type: functional; design: scale not given: the % may be the effect or the level left; conditions: time 0.5-1.5 hrs
[5] = Intrinsic clearance in human liver microsomes at 10 uM incubated for 1 hr in presence of NADPH by LC-MS/MS analysis; type: ADME, Microsome; conditions: read-out: CLH
[6] = Ratio of drug concentration in brain to plasma in Sprague-Dawley rat at 10 mg/kg, ip by LC-MS/MS analysis; type: ADME, organism-based; conditions: read-out: BPR
[7] = Cmax in Sprague-Dawley rat plasma at 10 mg/kg, ip measured after 0.25 to 4 hrs by LC-MS/MS analysis; type: ADME, organism-based; design: route intraperitoneal, time upper 4 hrs, time lower 0.25 hrs, dose 10 mg/kg
[8] = AUC (0 to infinity) in Sprague-Dawley rat plasma at 10 mg/kg, ip after 0.25 to 4 hrs by LC-MS/MS analysis; type: ADME, organism-based; design: route intraperitoneal, time 0.25-4 hrs, dose 10 mg/kg
[9] = test system: Rattus norvegicus; assay: Analgesic activity in Sprague-Dawley rat model of paclitaxel-induced neuropathic pain assessed as reduction in cold hyperalgesia by measuring increase in paw withdrawal latency at 20 to 40 mg/kg, ip measured at 1 to 2 hrs post dosing by Von Frey assay relative to control; type: functional; design: scale not given: the % may be the effect or the level left; conditions: dose 20-40 mg/kg, time 1-2 hrs
[10] = target: Sigma non-opioid intracellular receptor 1 (Homo sapiens, UniProt Q99720); assay: Displacement of [3H]-pentazocine from sigma-1 receptor in human Jurkat cell membrane incubated for 2 hr by liquid scintillation counting method; type: cell membranes
[11] = target: Sigma non-opioid intracellular receptor 1 (Cavia porcellus) (UniProt Q60492); assay: Ratio of Ki for displacement of [3H]-(+)-pentazocine from sigma-1 receptor to Ki for displacement of [3H]-(+)-pentazocine from sigma-1 receptor in guinea pig brain membranes in presence of phenytoin; type: cell membranes; conditions: Membrane
[12] = Metabolic stability in rat liver microsomes assessed as half-life at 10 uM incubated for 1 hr in presence of NADPH by LC-MS/MS analysis; type: ADME, Microsome
[13] = Metabolic stability in human liver microsomes assessed as half-life at 10 uM incubated for 1 hr in presence of NADPH by LC-MS/MS analysis; type: ADME, Microsome
[14] = Intrinsic clearance in rat liver microsomes at 10 uM incubated for 1 hr in presence of NADPH by LC-MS/MS analysis; type: ADME, Microsome; conditions: read-out: CLH
[15] = AUC (0 to 4 hrs) in Sprague-Dawley rat plasma at 10 mg/kg, ip after 0.25 to 4 hrs by LC-MS/MS analysis; type: ADME, organism-based; design: route intraperitoneal, dose 10 mg/kg, time upper 4 hrs, time lower 0.25 hrs
[16] = target: Kappa-type opioid receptor (Homo sapiens) (UniProt P41145); assay: Displacement of [3H]-Diprenorphine from recombinant human full-length kappa opiod receptor expressed in human HEK293 cells at 1 uM incubated for 60 mins by scintillation counting method; type: cell-based
[17] = Half life in Sprague-Dawley rat plasma at 10 mg/kg, ip measured after 0.25 to 4 hrs by LC-MS/MS analysis; type: ADME, organism-based; conditions: time 0.25-4 hrs
[18] = target: T1, Sigma non-opioid intracellular receptor 1 (Cavia porcellus, UniProt Q60492)
[19] = target: Delta-type opioid receptor (Homo sapiens) (UniProt P41143); assay: Displacement of [3H]-Naltrindole from recombinant human full-length delta opiod receptor expressed in human HEK293 cells at 1 uM incubated for 60 mins by scintillation counting method; type: cell-based
[20] = test system: Rattus norvegicus; assay: Antinociceptive activity in formalin-induced Sprague-Dawley rat model of nociceptive pain assessed as decrease in time spent on licking during acute phase at 40 mg/kg, ip administered 30 mins before formalin stimulation and measured at 5 mins interval for 10 mins; type: functional, organism-based; conditions: time 40.0 min
[21] = Displacement of [3H]-DTG from sigma-2 receptor in guinea pig brain membrane incubated for 1 hr by liquid scintillation counting method; type: cell membranes, Cavia porcellus
[22] = target: hERG (KCNH2) (Homo sapiens, UniProt Q12809); assay: Binding affinity to human ERG at 1 uM relative to control; type: cell-based; conditions: HEK293 cells, read-out: Activity
[23] = test system: Rattus norvegicus; assay: Antinociceptive activity in formalin-induced Sprague-Dawley rat model of nociceptive pain assessed as decrease in time spent on licking during late phase at 20 to 40 mg/kg, ip administered 30 mins before formalin stimulation and measured at 5 mins interval for 10 to 35 mins; type: functional, organism-based; conditions: dose 20-40 mg/kg
[24] = target: T1, Sigma non-opioid intracellular receptor 1; assay: Displacement of [3H]-(+)-pentazocine from sigma-1 receptor in guinea pig brain membranes incubated for 1 hr by liquid scintillation counting method; type: cell membranes, Membrane
[25] = target: Mu-type opioid receptor (Homo sapiens) (UniProt P35372); assay: Displacement of [3H]-Diprenorphine from recombinant human full-length mu opiod receptor expressed in […] cells at 1 uM incubated for 60 mins by scintillation counting method; type: cell-based; conditions: HEK293
[26] = Toxicity in Sprague-Dawley rat assessed as effect on motor coordination at 10 to 20 mg/kg, ip measured at 30 to 120 mins post treatment by rotarod test; type: organism-based; conditions: in vivo, dose lower 10 mg/kg, time lower 30 min, dose upper 20 mg/kg, time upper 120 min

T1 sequence (Q60492 whole entry): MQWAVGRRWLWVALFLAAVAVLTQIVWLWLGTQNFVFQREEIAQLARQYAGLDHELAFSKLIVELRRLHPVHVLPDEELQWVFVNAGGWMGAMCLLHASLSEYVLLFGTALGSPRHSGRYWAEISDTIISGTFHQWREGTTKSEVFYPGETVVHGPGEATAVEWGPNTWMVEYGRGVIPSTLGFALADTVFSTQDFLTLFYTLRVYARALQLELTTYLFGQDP
Sigma non-opioid intracellular receptor 1 (Cavia porcellus), sequence (Q60492 whole entry): as above
Mu-type opioid receptor (Homo sapiens), sequence (P35372 whole entry): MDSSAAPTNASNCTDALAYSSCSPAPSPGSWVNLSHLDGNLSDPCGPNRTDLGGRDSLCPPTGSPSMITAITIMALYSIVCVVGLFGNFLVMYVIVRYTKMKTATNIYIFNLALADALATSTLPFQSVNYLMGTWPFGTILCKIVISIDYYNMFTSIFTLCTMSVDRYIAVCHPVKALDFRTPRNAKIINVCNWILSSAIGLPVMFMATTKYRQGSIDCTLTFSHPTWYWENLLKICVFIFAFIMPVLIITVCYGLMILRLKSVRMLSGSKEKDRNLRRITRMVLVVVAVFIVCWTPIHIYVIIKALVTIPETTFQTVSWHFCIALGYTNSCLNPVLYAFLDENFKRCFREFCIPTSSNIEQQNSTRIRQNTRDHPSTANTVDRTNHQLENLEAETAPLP
Delta-type opioid receptor (Homo sapiens), sequence (P41143 whole entry): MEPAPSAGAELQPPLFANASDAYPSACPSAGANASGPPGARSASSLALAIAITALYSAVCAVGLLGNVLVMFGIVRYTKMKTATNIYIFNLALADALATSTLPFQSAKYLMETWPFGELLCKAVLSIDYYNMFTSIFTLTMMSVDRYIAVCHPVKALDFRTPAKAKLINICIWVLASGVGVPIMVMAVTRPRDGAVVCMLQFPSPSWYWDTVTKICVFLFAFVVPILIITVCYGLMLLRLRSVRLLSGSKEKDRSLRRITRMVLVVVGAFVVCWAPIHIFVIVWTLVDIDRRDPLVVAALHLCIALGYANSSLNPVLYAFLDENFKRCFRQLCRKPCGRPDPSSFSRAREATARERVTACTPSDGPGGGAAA
Sigma non-opioid intracellular receptor 1 (Homo sapiens, UniProt Q99720), sequence (Q99720 whole entry): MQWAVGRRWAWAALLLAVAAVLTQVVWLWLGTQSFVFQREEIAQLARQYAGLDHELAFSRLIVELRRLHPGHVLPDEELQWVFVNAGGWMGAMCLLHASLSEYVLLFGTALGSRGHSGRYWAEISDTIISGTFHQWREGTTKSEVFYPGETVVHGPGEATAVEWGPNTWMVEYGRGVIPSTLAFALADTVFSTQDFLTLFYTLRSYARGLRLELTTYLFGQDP
Kappa-type opioid receptor (Homo sapiens), sequence (P41145 whole entry): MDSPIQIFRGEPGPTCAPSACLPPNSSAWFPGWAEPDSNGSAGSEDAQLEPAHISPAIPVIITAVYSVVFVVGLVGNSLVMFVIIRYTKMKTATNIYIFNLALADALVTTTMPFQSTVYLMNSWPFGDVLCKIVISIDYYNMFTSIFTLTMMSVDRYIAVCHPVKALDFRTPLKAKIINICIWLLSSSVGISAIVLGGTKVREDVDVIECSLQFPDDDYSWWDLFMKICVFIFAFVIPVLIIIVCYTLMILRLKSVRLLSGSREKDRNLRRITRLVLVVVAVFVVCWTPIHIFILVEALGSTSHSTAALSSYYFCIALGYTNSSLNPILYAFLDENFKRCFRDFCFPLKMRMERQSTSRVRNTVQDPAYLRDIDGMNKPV
hERG (KCNH2), sequence (Q12809 whole entry): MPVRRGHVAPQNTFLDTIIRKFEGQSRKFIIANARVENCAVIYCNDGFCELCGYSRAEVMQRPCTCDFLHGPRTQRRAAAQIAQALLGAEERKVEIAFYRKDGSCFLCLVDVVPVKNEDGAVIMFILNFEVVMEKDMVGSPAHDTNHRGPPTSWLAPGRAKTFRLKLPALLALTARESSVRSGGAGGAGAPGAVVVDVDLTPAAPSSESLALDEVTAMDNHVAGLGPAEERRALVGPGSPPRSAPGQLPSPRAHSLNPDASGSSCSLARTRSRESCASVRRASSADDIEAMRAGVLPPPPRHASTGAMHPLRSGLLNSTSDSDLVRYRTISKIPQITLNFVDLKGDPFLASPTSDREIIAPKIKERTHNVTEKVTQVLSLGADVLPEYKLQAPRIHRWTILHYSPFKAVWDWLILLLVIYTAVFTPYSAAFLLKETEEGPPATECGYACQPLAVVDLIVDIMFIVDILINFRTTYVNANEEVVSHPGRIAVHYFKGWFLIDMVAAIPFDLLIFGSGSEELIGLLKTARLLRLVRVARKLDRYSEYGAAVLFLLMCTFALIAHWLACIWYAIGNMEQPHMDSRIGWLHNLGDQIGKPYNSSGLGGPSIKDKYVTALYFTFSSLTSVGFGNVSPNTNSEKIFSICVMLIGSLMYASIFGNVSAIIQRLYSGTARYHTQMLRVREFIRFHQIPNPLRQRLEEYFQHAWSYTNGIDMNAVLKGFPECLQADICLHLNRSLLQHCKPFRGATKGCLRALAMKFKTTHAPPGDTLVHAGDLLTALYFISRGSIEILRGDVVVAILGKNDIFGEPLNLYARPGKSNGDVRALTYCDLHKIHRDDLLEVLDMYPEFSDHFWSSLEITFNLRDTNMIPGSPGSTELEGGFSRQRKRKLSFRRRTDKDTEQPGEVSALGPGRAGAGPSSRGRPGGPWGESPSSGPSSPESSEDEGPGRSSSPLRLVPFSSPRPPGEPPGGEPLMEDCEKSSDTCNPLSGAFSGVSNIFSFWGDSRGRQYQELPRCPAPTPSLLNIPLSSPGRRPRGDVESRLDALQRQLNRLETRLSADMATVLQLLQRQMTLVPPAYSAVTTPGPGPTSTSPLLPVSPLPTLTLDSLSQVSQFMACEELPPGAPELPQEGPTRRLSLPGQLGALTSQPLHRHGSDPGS
Sigma intracellular receptor 2, sequence (Q5BJF2 whole entry): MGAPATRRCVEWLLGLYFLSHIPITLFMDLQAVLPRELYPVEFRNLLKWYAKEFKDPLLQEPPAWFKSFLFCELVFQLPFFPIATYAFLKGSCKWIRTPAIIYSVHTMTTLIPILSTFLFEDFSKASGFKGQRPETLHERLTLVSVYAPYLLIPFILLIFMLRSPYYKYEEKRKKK

Structure (SMILES): Cn1nc(CN2CCCC2)nc1-c1ccc(C(C)(C)C)cc1
- Tmax [1]: 15 min
- MRT inf [2]: 43.8 min
- Ki [3]: > 1000 nM
- Activity [4]: 180%
- microsomal CLint at 10 µM [5]: 5.8 µL/min/mg
- Kp [6]: 12
- Cmax [7]: 932 ng/mL
- AUC(0-inf) [8]: 635 ng·h/mL
- Activity [9]: 120%
- Ki [10]: 7.5 nM
- Ratio Ki [11]: 0.8
- half-life at 10 µM [12]: 9.6 min
- half-life at 10 µM [13]: 120 min
- microsomal CLint at 10 µM [14]: 72 µL/min/mg
- AUC(0-t) [15]: 633 ng·h/mL
- Activity [16]: inactive
- half-life [17]: 33.6 min
- Ki [18]: 3.4 nM
- Activity [19]: inactive
- Activity [20]: Active
- Ki [21]: 474 nM
- activity at 1 µM [22]: 8.4%
- Activity [23]: Active
- Ki [24]: 2.7 nM
- Activity [25]: inactive
- Activity [26]: Non-Toxic
